Measurements reported in ChEMBL document CHEMBL3045245, “Synthesis and antitumor activities of certain novel 2-amino-9-(4-halostyryl)-4H-pyrano[3,2-h]quinoline derivatives” (Med Chem Res, 2012).
Values after ≈ are worked out from the molar mass of the structure shown.

test system: not listed separately; assay: Cytotoxicity against Homo sapiens (human) HCT cells assessed as cell viability at 6.25 ug/ml after 48 hr by MTT assay; format: functional; conditions: read-out: Activity

SMILES	viability at 6.25 µg/mL [%]
CCOC(=O)C1=C(N)Oc2c(ccc3ccc(/C=C/c4ccc(Cl)cc4)nc23)C1c1ccc(Br)cc1 (stereo not drawn)	70.4
CCOC(=O)C1=C(N)Oc2c(ccc3ccc(/C=C/c4ccc(Br)cc4)nc23)C1c1ccc(Br)cc1 (stereo not drawn)	62.8
CCOC(=O)C1=C(N)Oc2c(ccc3ccc(/C=C/c4ccc(F)cc4)nc23)C1c1ccc(Br)cc1 (stereo not drawn)	84.9

test system: not listed separately; assay: Cytotoxicity against Homo sapiens (human) HCT cells assessed as cell viability at 25 ug/ml after 48 hr by MTT assay; format: functional; conditions: read-out: Activity

SMILES	viability at 25 µg/mL [%]
CCOC(=O)C1=C(N)Oc2c(ccc3ccc(/C=C/c4ccc(Cl)cc4)nc23)C1c1ccc(Br)cc1 (stereo not drawn)	45.8
CCOC(=O)C1=C(N)Oc2c(ccc3ccc(/C=C/c4ccc(Br)cc4)nc23)C1c1ccc(Br)cc1 (stereo not drawn)	31.4
CCOC(=O)C1=C(N)Oc2c(ccc3ccc(/C=C/c4ccc(F)cc4)nc23)C1c1ccc(Br)cc1 (stereo not drawn)	53.7

test system: not listed separately; assay: Cytotoxicity against Homo sapiens (human) HCT cells assessed as cell viability at 50 ug/ml after 48 hr by MTT assay; format: functional; conditions: read-out: Activity

SMILES	viability at 50 µg/mL [%]
CCOC(=O)C1=C(N)Oc2c(ccc3ccc(/C=C/c4ccc(Cl)cc4)nc23)C1c1ccc(Br)cc1 (stereo not drawn)	30.7
CCOC(=O)C1=C(N)Oc2c(ccc3ccc(/C=C/c4ccc(Br)cc4)nc23)C1c1ccc(Br)cc1 (stereo not drawn)	26
CCOC(=O)C1=C(N)Oc2c(ccc3ccc(/C=C/c4ccc(F)cc4)nc23)C1c1ccc(Br)cc1 (stereo not drawn)	17.4

test system: HepG2; assay: Cytotoxicity against Homo sapiens (human) HepG2 cells assessed as cell viability at 12.5 ug/ml after 48 hr by MTT assay; format: functional; conditions: HepG2, 48 h, read-out: Activity

SMILES	viability at 12.5 µg/mL [%]
CCOC(=O)C1=C(N)Oc2c(ccc3ccc(/C=C/c4ccc(Cl)cc4)nc23)C1c1ccc(Br)cc1 (stereo not drawn)	61.9
CCOC(=O)C1=C(N)Oc2c(ccc3ccc(/C=C/c4ccc(Br)cc4)nc23)C1c1ccc(Br)cc1 (stereo not drawn)	42.2
CCOC(=O)C1=C(N)Oc2c(ccc3ccc(/C=C/c4ccc(F)cc4)nc23)C1c1ccc(Br)cc1 (stereo not drawn)	76.4

test system: HepG2; assay: Cytotoxicity against Homo sapiens (human) HepG2 cells assessed as cell viability at 50 ug/ml after 48 hr by MTT assay; format: functional; conditions: HepG2, 48 h, read-out: Activity

SMILES	viability at 50 µg/mL [%]
CCOC(=O)C1=C(N)Oc2c(ccc3ccc(/C=C/c4ccc(Cl)cc4)nc23)C1c1ccc(Br)cc1 (stereo not drawn)	39.8
CCOC(=O)C1=C(N)Oc2c(ccc3ccc(/C=C/c4ccc(Br)cc4)nc23)C1c1ccc(Br)cc1 (stereo not drawn)	23.4
CCOC(=O)C1=C(N)Oc2c(ccc3ccc(/C=C/c4ccc(F)cc4)nc23)C1c1ccc(Br)cc1 (stereo not drawn)	34.6

test system: MCF7; assay: Cytotoxicity against Homo sapiens (human) MCF7 cells assessed as cell viability at 50 ug/ml after 48 hr by MTT assay; format: functional; conditions: MCF7, 48 h, read-out: Activity

SMILES	viability at 50 µg/mL [%]
CCOC(=O)C1=C(N)Oc2c(ccc3ccc(/C=C/c4ccc(Cl)cc4)nc23)C1c1ccc(Br)cc1 (stereo not drawn)	29.7
CCOC(=O)C1=C(N)Oc2c(ccc3ccc(/C=C/c4ccc(Br)cc4)nc23)C1c1ccc(Br)cc1 (stereo not drawn)	13
CCOC(=O)C1=C(N)Oc2c(ccc3ccc(/C=C/c4ccc(F)cc4)nc23)C1c1ccc(Br)cc1 (stereo not drawn)	37.6

test system: HepG2; assay: Cytotoxicity against Homo sapiens (human) HepG2 cells assessed as cell viability at 25 ug/ml after 48 hr by MTT assay; format: functional; conditions: HepG2, 48 h, read-out: Activity

SMILES	viability at 25 µg/mL [%]
CCOC(=O)C1=C(N)Oc2c(ccc3ccc(/C=C/c4ccc(Cl)cc4)nc23)C1c1ccc(Br)cc1 (stereo not drawn)	53.4
CCOC(=O)C1=C(N)Oc2c(ccc3ccc(/C=C/c4ccc(Br)cc4)nc23)C1c1ccc(Br)cc1 (stereo not drawn)	36.1
CCOC(=O)C1=C(N)Oc2c(ccc3ccc(/C=C/c4ccc(F)cc4)nc23)C1c1ccc(Br)cc1 (stereo not drawn)	62.9

test system: not listed separately; assay: Cytotoxicity against Homo sapiens (human) HCT cells after 48 hr by MTT assay; format: functional, cell-based; conditions: not given

SMILES	IC50 [µg/mL]
CCOC(=O)C1=C(N)Oc2c(ccc3ccc(/C=C/c4ccc(Cl)cc4)nc23)C1c1ccc(Br)cc1 (stereo not drawn)	20.4 (≈ 36.3 µM)
CCOC(=O)C1=C(N)Oc2c(ccc3ccc(/C=C/c4ccc(Br)cc4)nc23)C1c1ccc(Br)cc1 (stereo not drawn)	12.8 (≈ 21.1 µM)
CCOC(=O)C1=C(N)Oc2c(ccc3ccc(/C=C/c4ccc(F)cc4)nc23)C1c1ccc(Br)cc1 (stereo not drawn)	26.1 (≈ 47.9 µM)

test system: MCF7; assay: Cytotoxicity against Homo sapiens (human) MCF7 cells assessed as cell viability at 6.25 ug/ml after 48 hr by MTT assay; format: functional; conditions: MCF7, 48 h, read-out: Activity

SMILES	viability at 6.25 µg/mL [%]
CCOC(=O)C1=C(N)Oc2c(ccc3ccc(/C=C/c4ccc(Cl)cc4)nc23)C1c1ccc(Br)cc1 (stereo not drawn)	63.5
CCOC(=O)C1=C(N)Oc2c(ccc3ccc(/C=C/c4ccc(Br)cc4)nc23)C1c1ccc(Br)cc1 (stereo not drawn)	31.6
CCOC(=O)C1=C(N)Oc2c(ccc3ccc(/C=C/c4ccc(F)cc4)nc23)C1c1ccc(Br)cc1 (stereo not drawn)	85.5

test system: MCF7; assay: Cytotoxicity against Homo sapiens (human) MCF7 cells assessed as cell viability at 12.5 ug/ml after 48 hr by MTT assay; format: functional; conditions: MCF7, 48 h, read-out: Activity

SMILES	viability at 12.5 µg/mL [%]
CCOC(=O)C1=C(N)Oc2c(ccc3ccc(/C=C/c4ccc(Cl)cc4)nc23)C1c1ccc(Br)cc1 (stereo not drawn)	45.6
CCOC(=O)C1=C(N)Oc2c(ccc3ccc(/C=C/c4ccc(Br)cc4)nc23)C1c1ccc(Br)cc1 (stereo not drawn)	23.8
CCOC(=O)C1=C(N)Oc2c(ccc3ccc(/C=C/c4ccc(F)cc4)nc23)C1c1ccc(Br)cc1 (stereo not drawn)	74.6

test system: not listed separately; assay: Cytotoxicity against Homo sapiens (human) HCT cells assessed as cell viability at 1.56 ug/ml after 48 hr by MTT assay; format: functional; conditions: read-out: Activity

SMILES	viability at 1.56 µg/mL [%]
CCOC(=O)C1=C(N)Oc2c(ccc3ccc(/C=C/c4ccc(Cl)cc4)nc23)C1c1ccc(Br)cc1 (stereo not drawn)	82.9
CCOC(=O)C1=C(N)Oc2c(ccc3ccc(/C=C/c4ccc(Br)cc4)nc23)C1c1ccc(Br)cc1 (stereo not drawn)	86
CCOC(=O)C1=C(N)Oc2c(ccc3ccc(/C=C/c4ccc(F)cc4)nc23)C1c1ccc(Br)cc1 (stereo not drawn)	100

test system: not listed separately; assay: Cytotoxicity against Homo sapiens (human) HCT cells assessed as cell viability at 3.125 ug/ml after 48 hr by MTT assay; format: functional; conditions: read-out: Activity

SMILES	viability at 3.125 µg/mL [%]
CCOC(=O)C1=C(N)Oc2c(ccc3ccc(/C=C/c4ccc(Cl)cc4)nc23)C1c1ccc(Br)cc1 (stereo not drawn)	74.3
CCOC(=O)C1=C(N)Oc2c(ccc3ccc(/C=C/c4ccc(Br)cc4)nc23)C1c1ccc(Br)cc1 (stereo not drawn)	76.6
CCOC(=O)C1=C(N)Oc2c(ccc3ccc(/C=C/c4ccc(F)cc4)nc23)C1c1ccc(Br)cc1 (stereo not drawn)	98.5

test system: MCF7; assay: Cytotoxicity against Homo sapiens (human) MCF7 cells assessed as cell viability at 1.56 ug/ml after 48 hr by MTT assay; format: functional; conditions: MCF7, 48 h, read-out: Activity

SMILES	viability at 1.56 µg/mL [%]
CCOC(=O)C1=C(N)Oc2c(ccc3ccc(/C=C/c4ccc(Cl)cc4)nc23)C1c1ccc(Br)cc1 (stereo not drawn)	80.9
CCOC(=O)C1=C(N)Oc2c(ccc3ccc(/C=C/c4ccc(Br)cc4)nc23)C1c1ccc(Br)cc1 (stereo not drawn)	62.3
CCOC(=O)C1=C(N)Oc2c(ccc3ccc(/C=C/c4ccc(F)cc4)nc23)C1c1ccc(Br)cc1 (stereo not drawn)	99.3

test system: MCF7; assay: Cytotoxicity against Homo sapiens (human) MCF7 cells assessed as cell viability at 25 ug/ml after 48 hr by MTT assay; format: functional; conditions: MCF7, 48 h, read-out: Activity

SMILES	viability at 25 µg/mL [%]
CCOC(=O)C1=C(N)Oc2c(ccc3ccc(/C=C/c4ccc(Cl)cc4)nc23)C1c1ccc(Br)cc1 (stereo not drawn)	37.9
CCOC(=O)C1=C(N)Oc2c(ccc3ccc(/C=C/c4ccc(Br)cc4)nc23)C1c1ccc(Br)cc1 (stereo not drawn)	17.9
CCOC(=O)C1=C(N)Oc2c(ccc3ccc(/C=C/c4ccc(F)cc4)nc23)C1c1ccc(Br)cc1 (stereo not drawn)	67

test system: not listed separately; assay: Cytotoxicity against Homo sapiens (human) HCT cells assessed as cell viability at 12.5 ug/ml after 48 hr by MTT assay; format: functional; conditions: read-out: Activity

SMILES	viability at 12.5 µg/mL [%]
CCOC(=O)C1=C(N)Oc2c(ccc3ccc(/C=C/c4ccc(Cl)cc4)nc23)C1c1ccc(Br)cc1 (stereo not drawn)	61.3
CCOC(=O)C1=C(N)Oc2c(ccc3ccc(/C=C/c4ccc(Br)cc4)nc23)C1c1ccc(Br)cc1 (stereo not drawn)	52.2
CCOC(=O)C1=C(N)Oc2c(ccc3ccc(/C=C/c4ccc(F)cc4)nc23)C1c1ccc(Br)cc1 (stereo not drawn)	78.7

test system: HepG2; assay: Cytotoxicity against Homo sapiens (human) HepG2 cells assessed as cell viability at 3.125 ug/ml after 48 hr by MTT assay; format: functional; conditions: HepG2, 48 h, read-out: Activity

SMILES	viability at 3.125 µg/mL [%]
CCOC(=O)C1=C(N)Oc2c(ccc3ccc(/C=C/c4ccc(Cl)cc4)nc23)C1c1ccc(Br)cc1 (stereo not drawn)	76.3
CCOC(=O)C1=C(N)Oc2c(ccc3ccc(/C=C/c4ccc(Br)cc4)nc23)C1c1ccc(Br)cc1 (stereo not drawn)	61
CCOC(=O)C1=C(N)Oc2c(ccc3ccc(/C=C/c4ccc(F)cc4)nc23)C1c1ccc(Br)cc1 (stereo not drawn)	94.6

test system: MCF7; assay: Cytotoxicity against Homo sapiens (human) MCF7 cells assessed as cell viability at 3.125 ug/ml after 48 hr by MTT assay; format: functional; conditions: MCF7, 48 h, read-out: Activity

SMILES	viability at 3.125 µg/mL [%]
CCOC(=O)C1=C(N)Oc2c(ccc3ccc(/C=C/c4ccc(Cl)cc4)nc23)C1c1ccc(Br)cc1 (stereo not drawn)	76
CCOC(=O)C1=C(N)Oc2c(ccc3ccc(/C=C/c4ccc(Br)cc4)nc23)C1c1ccc(Br)cc1 (stereo not drawn)	45.5
CCOC(=O)C1=C(N)Oc2c(ccc3ccc(/C=C/c4ccc(F)cc4)nc23)C1c1ccc(Br)cc1 (stereo not drawn)	93.9

test system: HepG2; assay: Cytotoxicity against Homo sapiens (human) HepG2 cells assessed as cell viability at 1.56 ug/ml after 48 hr by MTT assay; format: functional; conditions: HepG2, 48 h, read-out: Activity

SMILES	viability at 1.56 µg/mL [%]
CCOC(=O)C1=C(N)Oc2c(ccc3ccc(/C=C/c4ccc(Cl)cc4)nc23)C1c1ccc(Br)cc1 (stereo not drawn)	89.4
CCOC(=O)C1=C(N)Oc2c(ccc3ccc(/C=C/c4ccc(Br)cc4)nc23)C1c1ccc(Br)cc1 (stereo not drawn)	79.6
CCOC(=O)C1=C(N)Oc2c(ccc3ccc(/C=C/c4ccc(F)cc4)nc23)C1c1ccc(Br)cc1 (stereo not drawn)	97.1

test system: HepG2; assay: Cytotoxicity against Homo sapiens (human) HepG2 cells assessed as cell viability at 6.25 ug/ml after 48 hr by MTT assay; format: functional; conditions: HepG2, 48 h, read-out: Activity

SMILES	viability at 6.25 µg/mL [%]
CCOC(=O)C1=C(N)Oc2c(ccc3ccc(/C=C/c4ccc(Cl)cc4)nc23)C1c1ccc(Br)cc1 (stereo not drawn)	69.7
CCOC(=O)C1=C(N)Oc2c(ccc3ccc(/C=C/c4ccc(Br)cc4)nc23)C1c1ccc(Br)cc1 (stereo not drawn)	48.6
CCOC(=O)C1=C(N)Oc2c(ccc3ccc(/C=C/c4ccc(F)cc4)nc23)C1c1ccc(Br)cc1 (stereo not drawn)	83.3

test system: MCF7; assay: Cytotoxicity against Homo sapiens (human) MCF7 cells after 48 hr by MTT assay; format: functional, cell-based; conditions: MCF7, 48 h

SMILES	IC50 [µg/mL]
CCOC(=O)C1=C(N)Oc2c(ccc3ccc(/C=C/c4ccc(Cl)cc4)nc23)C1c1ccc(Br)cc1 (stereo not drawn)	10.3 (≈ 18.3 µM)
CCOC(=O)C1=C(N)Oc2c(ccc3ccc(/C=C/c4ccc(Br)cc4)nc23)C1c1ccc(Br)cc1 (stereo not drawn)	2.4 (≈ 3.96 µM)
CCOC(=O)C1=C(N)Oc2c(ccc3ccc(/C=C/c4ccc(F)cc4)nc23)C1c1ccc(Br)cc1 (stereo not drawn)	38.4 (≈ 70.4 µM)

test system: HepG2; assay: Cytotoxicity against Homo sapiens (human) HepG2 cells after 48 hr by MTT assay; format: functional, cell-based; conditions: HepG2, 48 h

SMILES	IC50 [µg/mL]
CCOC(=O)C1=C(N)Oc2c(ccc3ccc(/C=C/c4ccc(Cl)cc4)nc23)C1c1ccc(Br)cc1 (stereo not drawn)	28.6 (≈ 50.9 µM)
CCOC(=O)C1=C(N)Oc2c(ccc3ccc(/C=C/c4ccc(Br)cc4)nc23)C1c1ccc(Br)cc1 (stereo not drawn)	6.1 (≈ 10.1 µM)
CCOC(=O)C1=C(N)Oc2c(ccc3ccc(/C=C/c4ccc(F)cc4)nc23)C1c1ccc(Br)cc1 (stereo not drawn)	37.1 (≈ 68 µM)
